# Counter-ions that a name gives are not always drawn.
# Assay: Antimicrobial activity assay: whole-cell MIC by broth microdilution (NCCLS M7-A6)
# Type: cell-based
# Details: versus all the organisms named above (S. aureus WCUH29, S. pneumoniae 1629, S. pyogenes CN 10, E. faecalis 2, H. influenzae NEMC1, E. coli 7623, M. catarrhalis Ravasio); read-out: MIC
# Experimental: Whole-cell antimicrobial activity was determined by broth microdilution using the National Committee for Clinical Laboratory Standards (NCCLS) recommended procedure, Document M7-A6, “Methods for Dilution Susceptibility Tests for Bacteria that Grow Aerobically”. The compounds were tested in serial two-fold dilutions ranging from 0.016 to 16 mcg/mL. Compounds were evaluated against a panel of Gram-positive organisms, including Staphylococcus aureus WCUH29, Streptococcus pneumoniae 1629, Streptococcus pyogenes CN 10, and Enterococcus faecalis 2. In addition, compounds were evaluated against a panel of Gram-negative strains including Haemophilus influenzae NEMC1, E. coli 7623, and Moraxella catarrhalis Ravasio. The minimum inhibitory concentration (MIC) was determined as the lowest concentration of compound that inhibited visible growth. A mirror reader was used to assist in determining the MIC endpoint.
# Compounds of the present invention have MIC's ≦20 μg/ml versus all the organisms named above.
row,SMILES,MIC [µg/mL]
1,"COc1cc(F)c2ncc(F)c(CCN3CC[C@H](NCc4cc5c(cn4)OCCO5)[C@H](F)C3)c2c1.Cl.Cl (single isomer, unassigned; enantiomer 2) [Example 144, cis-1-{2-[3,8-difluoro-6-(methoxy)-4-quinolinyl]ethyl}-N-(2,3-dihydro[1,4]dioxino[2,3-c]pyridin-7-ylmethyl)-3-fluoro-4-piperidinamine dihydrochloride Enantiomer 2]",≤ 2
2,"COc1ccc2ncc(Cl)c(CCN3CC[C@@H](NCc4cc5c(cn4)OCCO5)[C@H](O)C3)c2n1 (single isomer, unassigned; enantiomer 1) [Example 154, trans-1-{2-[3-chloro-6-(methoxy)-1,5-naphthyridin-4-yl]ethyl}-4-[(2,3-dihydro[1,4]dioxino[2,3-c]pyridin-7-ylmethyl)amino]-3-piperidinol Enantiomer 1]",≤ 2
3,"COc1ccc2ncc(F)c(CCN3CCC(NCc4cc5c(cn4)OCCO5)CC3)c2c1.Cl.Cl [Example 32, {1-[2-(3-Fluoro-6-methoxy-quinolin-4-yl)-ethyl]-piperidin-4-yl}-(2,3-dihydro-[1,4]dioxino[2,3-c]pyridin-7-ylmethyl)-amine dihydrochloride]",≤ 2
4,"COc1cc(F)c2ncc(Cl)c(CCN3CC[C@H](NCc4cc5c(cn4)OCCO5)[C@H](O)C3)c2c1.Cl.Cl [Example 98, (3R,4S)-1-{2-[3-chloro-8-fluoro-6-(methoxy)-4-quinolinyl]ethyl}-4-[(2,3-dihydro[1,4]dioxino[2,3-c]pyridin-7-ylmethyl)amino]-3-piperidinol dihydrochloride]",≤ 2
5,"Cl.Cl.Fc1ccc2ncc(Cl)c(CCN3CCC(NCc4cc5c(cn4)OCCO5)CC3)c2c1 [Example 26, {1-[2-(3-Chloro-6-fluoro-quinolin-4-yl)-ethyl]-piperidin-4-yl}(2,3-dihydro[1,4]dioxino[2,3-c]pyridin-7-ylmethyl)-amine Dihydrochloride]",≤ 2
6,"COc1ccc2ncc(F)c(CCN3CCC(NCc4ccc5c(n4)NC(=O)CS5)CC3)c2c1.Cl.Cl [Example 31, 6-({1-[2-(3-Fluoro-6-methoxyquinolin-4-yl)ethyl]piperidin-4-ylamino}methyl)-4H-pyrido[3,2-b][1,4]thiazin-3-one dihydrochloride]",≤ 2
7,"COc1cc(F)c2ncc(F)c(CCN3CC[C@H](NC(=O)c4ccc5c(n4)NC(=O)CS5)[C@H](F)C3)c2c1.Cl (single isomer, unassigned; enantiomer 1) [Example 151, cis-N-(1-{2-[3,8-difluoro-6-(methoxy)-4-quinolinyl]ethyl}-3-fluoro-4-piperidinyl)-3-oxo-3,4-dihydro-2H-pyrido[3,2-b][1,4]thiazine-6-carboxamide hydrochloride Enantiomer 1]",≤ 2
8,"COc1ccc2ncc(Cl)c(CCN3CC[C@H](NCc4ccc5c(n4)NC(=O)CS5)[C@H](O)C3)c2n1.Cl.Cl (single isomer, unassigned; enantiomer 1) [Example 11, 6-({(cis)-1-[2-(3-Chloro-6-methoxy-[1,5]naphthyridin-4-yl)-ethyl]-3-hydroxy-piperidin-4-ylamino}-methyl)-4H-pyrido[3,2-b][1,4]thiazin-3-one Dihydrochloride Enantiomer 1]",≤ 2
9,"COc1cc(F)c2ncc(F)c(CCN3CC[C@H](NCc4ccc5c(n4)NC(=O)CO5)[C@H](F)C3)c2c1.Cl.Cl (single isomer, unassigned; enantiomer 1) [Example 145, cis-6-{[(1-{2-[3,8-difluoro-6-(methoxy)-4-quinolinyl]ethyl}-3-fluoro-4-piperidinyl)amino]methyl}-2H-pyrido[3,2-b][1,4]oxazin-3(4H)-one dihydrochloride, Enantiomer 1]",≤ 2
10,"Cc1ccc2ncc(Cl)c(CCN3CCC(NCc4ccc5c(n4)NC(=O)CS5)CC3)c2n1.Cl.Cl [Example 23, 6-({1-[2-(3-Chloro-6-methyl-[1,5]naphthyridin-4-yl)-ethyl]-piperidin-4-ylamino}-methyl)-4H-pyrido[3,2-b][1,4]thiazin-3-one Dihydrochloride]",≤ 2
11,"COc1ccc2ncc(Cl)c(C(O)CN3CCC(NCc4cc5c(cn4)OCCO5)CC3)c2n1.Cl.Cl (single isomer, unassigned; enantiomer 1) [Example 35, {1-[2-(3-Chloro-6-methoxy-[1,5]naphthyridin-4-yl)-2-hydroxyethyl]-piperidin-4-yl}-(2,3-dihydro-[1,4]dioxino[2,3-c]pyridin-7-ylmethyl)-amine Dihydrochloride Enantiomer 1]",≤ 2
12,"COc1ccc2ncc(Br)c(CCN3CCC(NCc4cc5c(cn4)OCCO5)CC3)c2c1.Cl.Cl [Example 44, {1-[2-(3-Bromo-6-methoxy-quinolin-4-yl)-ethyl]-piperidin-4-yl}-(2,3-dihydro-[1,4]dioxino[2,3-c]pyridin-7-ylmethyl)-amine Dihydrochloride]",≤ 2
13,"COc1ccc2ncc(Cl)c(CCN3CC[C@H](NCc4ccc5c(n4)NC(=O)CO5)[C@H](O)C3)c2c1 (single isomer, unassigned; enantiomer 2) [Example 6, 6-({(cis)-1-[2-(3-Chloro-6-methoxy-quinolin-4-yl)-ethyl]-3-hydroxy-piperidin-4-ylamino}-methyl)-4H-pyrido[3,2-b][1,4]oxazin-3-one Dihydrochloride Enantiomer 2]",≤ 2
14,"COc1ccc2ncc(Cl)c(CCN3CC[C@H](NCc4ccc5c(n4)NC(=O)CS5)[C@H](O)C3)c2c1.Cl.Cl (single isomer, unassigned; enantiomer 1) [Example 7, 6-({(cis)-1-[2-(3-Chloro-6-methoxy-quinolin-4-yl)-ethyl]-3-hydroxy-piperidin-4-ylamino}-methyl)-4H-pyrido[3,2-b][1,4]thiazin-3-one Dihydrochloride Enantiomer 1]",≤ 2
15,"COc1cc(F)c2ncc(F)c(CCN3CC[C@H](NCc4ccc5c(n4)NC(=O)CS5)[C@H](O)C3)c2c1.Cl.Cl (single isomer, unassigned; enantiomer 1) [Example 73]",≤ 2
16,"COc1ccc2ncc(Cl)c(CCN3CC[C@@H](NCc4ccc5c(n4)NC(=O)CO5)[C@H](O)C3)c2c1.Cl.Cl.Cl (single isomer, unassigned; enantiomer 2) [Example 18, 6-({(trans)-1-[2-(3-Chloro-6-methoxyquinolin-4-yl)ethyl]3-hydroxypiperidin-4-ylamino}methyl)-4H-pyrido[3,2-b][1,4]oxazin-3-one Trihydrochloride enantiomer 2]",≤ 2
17,"COc1ccc2ncc(F)c(CCN3CCC(NC(=O)c4nc5c(cc4F)SCC(=O)N5)CC3)c2n1.Cl.Cl [Example 62, 7-Fluoro-N-(1-{2-[3-fluoro-6-(methoxy)-1,5-naphthyridin-4-yl]ethyl}-4-piperidinyl)-3-oxo-3,4-dihydro-2H-pyrido[3,2-b][1,4]thiazine-6-carboxamide dihydrochloride]",≤ 2
18,"COc1ccc2ncc(F)c(CCN3CCC(CO)(NC(=O)c4ccc5c(n4)NC(=O)CS5)CC3)c2n1.Cl [Example 93, N-[1-{2-[3-fluoro-6-(methoxy)-1,5-naphthyridin-4-yl]ethyl}-4-(hydroxymethyl)-4-piperidinyl]-3-oxo-3,4-dihydro-2H-pyrido[3,2-b][1,4]thiazine-6-carboxamide hydrochloride]",≤ 2
19,"COc1cc(F)c2ncc(Cl)c(CCN3CCC(NCc4cc5c(cn4)OCCO5)CC3)c2c1 [Example 161, 1-{2-[3-chloro-8-fluoro-6-(methoxy)-4-quinolinyl]ethyl}-N-(2,3-dihydro[1,4]dioxino[2,3-c]pyridin-7-ylmethyl)-4-piperidinamine]",≤ 2
20,"COc1cc(F)c2ncc(F)c(CCN3CC[C@H](NCc4ccc5c(c4)OCCO5)[C@H](F)C3)c2c1.Cl.Cl (single isomer, unassigned; enantiomer 1) [Example 147, cis-1-{2-[3,8-difluoro-6-(methoxy)-4-quinolinyl]ethyl}-N-(2,3-dihydro-1,4-benzodioxin-6-ylmethyl)-3-fluoro-4-piperidinamine dihydrochloride, Enantiomer 1]",≤ 2
21,"COc1ccc2ncc(F)c(CCN3CCC(NCc4cc5c(cn4)OCCS5)CC3)c2c1.Cl.Cl [Example 86, N-(2,3-dihydro[1,4]oxathiino[2,3-c]pyridin-7-ylmethyl)-1-{2-[3-fluoro-6-(methoxy)-4-quinolinyl]ethyl}-4-piperidinamine dihydrochloride]",≤ 2
22,"COc1ccc2ncc(F)c(CCN3CCC(NCc4cc5c(cn4)OCCS5)CC3)c2n1.Cl.Cl [Example 60, N-(2,3-Dihydro[1,4]oxathiino[2,3-c]pyridin-7-ylmethyl)-1-{2-[3-fluoro-6-(methoxy)-1,5-naphthyridin-4-yl]ethyl}-4-piperidinamine dihydrochloride]",≤ 2
23,"COc1ccc2ncc(F)c(CCN3CCC(NCc4ccc5c(n4)NC(=O)CO5)CC3)c2n1.Cl.Cl [Example 55, 6-{[(1-{2-[3-fluoro-6-(methoxy)-1,5-naphthyridin-4-yl]ethyl}-4-piperidinyl)amino]methyl}-2H-pyrido[3,2-b][1,4]oxazin-3(4H)-one dihydrochloride]",≤ 2
24,"COc1ccc2ncc(Cl)c(CCN3CC[C@@H](NCc4ccc5c(n4)NC(=O)CS5)[C@H](O)C3)c2c1.Cl.Cl.Cl (single isomer, unassigned; enantiomer 2) [Example 17, 6-({(trans)-1-[2-(3-Chloro-6-methoxyquinolin-4-yl)ethyl]3-hydroxypiperidin-4-ylamino}methyl)-4H-pyrido[3,2-b][1,4]thiazin-3-one Trihydrochloride enantiomer 2]",≤ 2

# Source: US20060041123A1, “Antibacterial agents” (priority 2002, published 2006)
